Measured values published in ChEMBL document CHEMBL1152192, “Carbonic anhydrase inhibitors. Inhibition of the beta-class enzyme from the yeast Saccharomyces cerevisiae with anions” (Bioorg Med Chem Lett, 2008).

How the values were obtained:
Carbonic anhydrase [1] = molecular target: T1, Carbonic anhydrase (Candida albicans (strain SC5314 / ATCC MYA-2876) (Yeast), UniProt Q5AJ71); test: Inhibition of Candida albicans carbonic anhydrase overexpressed in Escherichia coli BL21 (DE3) by CO2 hydration stopped-flow assay
T1 sequence (Q5AJ71 whole entry): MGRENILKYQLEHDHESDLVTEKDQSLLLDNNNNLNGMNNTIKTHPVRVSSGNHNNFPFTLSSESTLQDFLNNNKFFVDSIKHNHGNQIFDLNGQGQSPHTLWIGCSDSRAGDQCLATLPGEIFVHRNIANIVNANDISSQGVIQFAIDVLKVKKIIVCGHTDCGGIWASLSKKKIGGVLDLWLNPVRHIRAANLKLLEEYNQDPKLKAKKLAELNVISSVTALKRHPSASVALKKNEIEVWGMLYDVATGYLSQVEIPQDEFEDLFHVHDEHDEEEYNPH

Carbonic anhydrase [2] = molecular target: T2, Carbonic anhydrase (Saccharomyces cerevisiae S288c, UniProt P53615); test: Inhibition of Saccharomyces cerevisiae carbonic anhydrase overexpressed in Escherichia coli BL21 (DE3) by CO2 hydration stopped-flow assay
T2 sequence (P53615 whole entry): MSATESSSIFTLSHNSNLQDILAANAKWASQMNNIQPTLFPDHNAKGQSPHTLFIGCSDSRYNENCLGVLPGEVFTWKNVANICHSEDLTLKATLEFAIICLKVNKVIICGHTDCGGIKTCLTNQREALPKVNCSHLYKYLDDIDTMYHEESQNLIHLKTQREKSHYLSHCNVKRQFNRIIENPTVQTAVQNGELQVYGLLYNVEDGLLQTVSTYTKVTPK

Carbonic anhydrase [3] = molecular target: T2, Carbonic anhydrase; test: Inhibition of Saccharomyces cerevisiae carbonic anhydrase by stopped-flow CO2 hydration assay

| Ki (Carbonic anhydrase [3]) [µM] | Compound | Ki (Carbonic anhydrase [1]) [µM] | Ki (Carbonic anhydrase [2]) [µM] |
| --- | --- | --- | --- |
|  | NS(N)(=O)=O [SULFAMIDE] | 300 | 8.7 |
|  | NS(=O)(=O)O [SULFAMATE] | 700 | 840 |
| 16 | CCOc1ccc2nc(S(N)(=O)=O)sc2c1 [ETHOXZOLAMIDE] |  |  |
|  | OB(O)c1ccccc1 [PHENYLBORONIC ACID] | 30900 | 38200 |
